Assay results from patent US9265771B2, “Method for treating Lyme disease” (Zoetis Services LLC, priority 2012, dated 2016).

Key:
[1] = canine; cited from earlier work
B. burgdorferi [2] = experiment: Study B: SNAP-4Dx ELISA in tick-infected dogs; format: in vivo, beagle dogs; conditions: for SNAP-4Dx Positives, Number of Dogs: N = 8/group
Source text: Three outer surface proteins (Osp) on B. burgdorferi are important for diagnosis and prevention, and are expressed by the organism in response to its local environment. […] OspF is another surface protein that is generally observed in late-stage disease. The C in […] refers to a 25-amino acid, C6 peptide in the sixth invariable region of an outer membrane lipoprotein (VIsE). Antibody against C6 is highly accurate as a serologic diagnosis of Lyme disease independent of a subject's (e.g., canine) vaccination status. Further, the generation of C6 antibodies implies an active infection with viable spirochetes. Serological methods for detecting B. burgdorfer/Lyme disease were conducted using the IDEXX qualitative SNAP-4Dx ELISA and the Quantitative C6 (Quant C6 or QC6) diagnostic kits, which are enzyme linked immunosorbent assays against the previously described 25-amino-acid C6 peptide. QC6 ELISA data, units/mL, are useful for guidance in initiating and evaluating response to therapy (See Levy S A, O'Connor T P, Hanscom J L, Shields P, et al. Quantitative measurement of a C6 antibody following antibiotic treatment of Borrelia burgdorferi antibody-positive, nonclinical dogs. Clin Vacc Immunol 2008; 15(1):115-119 and Littman M P, Goldstein R E, Labato M A, et al. ACVIM Small Animal Concensus Statement on Lyme Disease in Dogs: Diagnosis, Treatment and Prevention. J Vet Intern Med 2006; 20: 422-434).
(§1) Thirty-two (18 male and 14 female) beagle dogs were sero-negative for Borrelia burgdorferi, not vaccinated with any Borrelia spp vaccines, and acclimated at the study facility for seven days. The study was conducted under National Research Council guidelines (1996). […] Field-caught Ixodes from the northeast USA were placed on the dogs without containment chambers for 10 days; after ticks fed to repletion, dogs were treated with two applications of an approved topical acaricide with a 30-day interval between applications.
(§2) Forty days post-challenge, and prior to antibiotic treatments, blood was collected from each dog as were two skin biopsy punch samples near tick attachment sites. Blood was collected approximately monthly post-treatment. Skin biopsies were taken near the tick attachment site on Days 48/49, 118, 146, 180, and 315. Serum antibodies to Borrelia were assayed using the IDEXX SNAP-4Dx and QC6 ELISA. In cooperation with Cornell University, serum samples were analyzed using fluorescent-bead-based multiplex assays detecting antibodies against B. burgdorferi outer surface proteins OspA, OspC, and OspF. Data were expressed as median fluorescent intensities (MFI), and shown to be specific and sensitive to provide interpretative guidelines regarding infection. The skin biopsies were collected for a polymerase chain reaction (PCR; FlaB) assay and cultured for spirochete detection. At the end of the study, blood and skin biopsies were collected and synovial tissue from the joints were harvested at necropsy.
(§3) On Day 75 and Day 89 Convenia was administered to the eight dogs in T04 (8 mg/kg bodyweight; subcutaneous injection). The other treated groups received their respective regimens daily and orally for 30 days from Days 75 to 104. […] Dogs in T01 served as infected, untreated, controls. Inter-treatment comparisons to evaluate antibiotic efficacy included clinical signs, serology, culture results and pathology.

B. burgdorferi [3] = experiment: Study B: microscopic examination of joints and skin at necropsy; format: in vivo, beagle dogs; conditions: for Number of Joints with Changes as Described for Lyme disease: N = 8
Description: as §1, §2, §3
At necropsy ten joints were harvested per each dog, formalin-fixed, stained and examined microscopically. Joints included the carpus, elbow, shoulder, stifle and tarsus on both the right and left limbs. Further, a section of skin near tick attachment sites was evaluated from each dog. There were two dogs in the Convenia group (25%) with tissues showing changes as described for Lyme disease, compared to seven controls (87.5%) and three (37.5%) to four (50.0%) dogs in the other antibiotic-treated groups (Table 7). […] The Convenia group had the lowest incidence of joint changes with six affected of 80.

B. burgdorferi [4] = experiment: Study A: joint culture and microscopic pathology of joints and skin; format: in vivo, beagle dogs
Description: Comparisons included serology, skin culture results and joint pathology.
Ten joints from each dog were cultured for spirochetes and examined microscopically for changes. Joints included carpus, elbow, shoulder, stifle and tarsus on both the right and left, front and rear limbs. Skin sections were also examined for Lyme disease related changes (pathology). There were six joints from untreated dogs that cultured positive for spirochetes compared to none from dogs treated with Convenia. Microscopically, all untreated, infected dogs had skin sections with inflammatory and other changes as described for Lyme disease, whereas six of eight (75%) treated dogs had similar findings. With the exception of one treated dog with all joints free of pathology, all other dogs had at least two joints showing Lyme disease changes. Despite the microscopic findings, definitively attributing joint pathology to infection or amelioration of pathology as a result of Convenia therapy was equivocal.

[5] = joints, skin, 8 dogs/group, necropsy

CO/N=C(\C(=O)N[C@@H]1C(=O)N2C(C(=O)[O-])=C([C@@H]3CCCO3)CS[C@H]12)c1csc(N)n1.[Na+] [Convenia, (6R,7R)-7-[[(2Z)-(2-amino-4-thiazolyl)(methoxyimino)acetyl]-amino]-8-oxo-3-[(2S)-tetrahydro-2-furanyl]-5-thia-1-azabicyclo[4.2.0]oct-2-ene-2-carboxylic acid, monosodium salt]
Elimination half-life [1]: about 133 hours | SNAP-4Dx Positives, Number of Dogs (B. burgdorferi [2]; Day 48 (pre-treatment; antibiotics from Day 75)): 6 | SNAP-4Dx Positives, Number of Dogs (B. burgdorferi [2]; Day 111): 5 | SNAP-4Dx Positives, Number of Dogs (B. burgdorferi [2]; Day 145): 1 | SNAP-4Dx Positives, Number of Dogs (B. burgdorferi [2]; Day 179): 2 | SNAP-4Dx Positives, Number of Dogs (B. burgdorferi [2]; Day 221): 0 | SNAP-4Dx Positives, Number of Dogs (B. burgdorferi [2]; Day 251): 0 | SNAP-4Dx Positives, Number of Dogs (B. burgdorferi [2]; Day 281): 0 | SNAP-4Dx Positives, Number of Dogs (B. burgdorferi [2]; Day 315): 0 | SNAP-4Dx Positives, Number of Dogs (B. burgdorferi [2]; Day −15 (pre-infection)): 0 | SNAP-4Dx positive dogs (B. burgdorferi [2]; rest of the study after Day 179): none positive | Number of Joints with Changes as Described for Lyme disease, Cumulative (B. burgdorferi [3]; 80 total/group): 6 | Number of Joints with Changes as Described for Lyme disease (B. burgdorferi [3]; Carpus L): 1 | Number of Joints with Changes as Described for Lyme disease (B. burgdorferi [3]; Carpus R): 1 | Number of Joints with Changes as Described for Lyme disease (B. burgdorferi [3]; Elbow L): 0 | Number of Joints with Changes as Described for Lyme disease (B. burgdorferi [3]; Elbow R): 1 | Number of Joints with Changes as Described for Lyme disease (B. burgdorferi [3]; Shoulder L): 0 | Number of Joints with Changes as Described for Lyme disease (B. burgdorferi [3]; Shoulder R): 0 | Number of Joints with Changes as Described for Lyme disease (B. burgdorferi [3]; Stifle L): 1 | Number of Joints with Changes as Described for Lyme disease (B. burgdorferi [3]; Stifle R): 2 | Number of Joints with Changes as Described for Lyme disease (B. burgdorferi [3]; Tarsus L): 0 | Number of Joints with Changes as Described for Lyme disease (B. burgdorferi [3]; Tarsus R): 0 | No Tissue Changes, # Dogs (B. burgdorferi [3]; [5]): 6 | No Tissue Changes, % (B. burgdorferi [3]; [5]): 75% | Tissue Changes Described for Lyme Disease, # Dogs (B. burgdorferi [3]; [5]): two | Tissue Changes Described for Lyme Disease, % (B. burgdorferi [3]; [5]): 25% | Tissue Changes Described for Lyme Disease, # Dogs (B. burgdorferi [3]; joints, skin, 8 dogs/group, necropsy, listed as T04, monosodium salt): 2 | Incidence of joint lesions, lower than in dogs administered doxycycline or amoxicillin orally for 30 days (B. burgdorferi [3]; microscopic evaluation of articular joints): 2 fold | Number of treated dogs with all joints free of pathology (B. burgdorferi [4]; dog, in vivo): one | Number of treated dogs with skin sections with inflammatory and other changes as described for Lyme disease (B. burgdorferi [4]; of eight treated infected dogs): six | Treated dogs with skin sections with inflammatory and other changes as described for Lyme disease (B. burgdorferi [4]; of eight treated infected dogs): 75% | Joints that cultured positive for spirochetes (B. burgdorferi [4]; ten joints per dog, six in untreated dogs): none | Grade of inflammatory changes in joints (B. burgdorferi [4]; untreated dogs: moderate to marked): none to mild
